ChEMBL document CHEMBL1136781, “Comparison of in vitro P-glycoprotein screening assays: recommendations for their use in drug discovery” (J Med Chem, 2003)

Assays:
[1] = molecular target: T1, ATP-dependent translocase ABCB1 (Mus musculus, UniProt P21447); test: TP_TRANSPORTER: inhibition of Calcein-AM efflux in Mdr1a-expressing LLC-PK1 cells; assay type: functional, cell-based
[2] = molecular target: T2, ATP-dependent translocase ABCB1 (Homo sapiens, UniProt P08183); test: TP_TRANSPORTER: inhibition of Rhodamine 123 efflux in Caco-2 cells; assay type: functional, cell-based; set-up: concentration or dose not given beside the values; scale not given: the % may be the effect or the level left
Target sequence in this assay (P08183 whole entry): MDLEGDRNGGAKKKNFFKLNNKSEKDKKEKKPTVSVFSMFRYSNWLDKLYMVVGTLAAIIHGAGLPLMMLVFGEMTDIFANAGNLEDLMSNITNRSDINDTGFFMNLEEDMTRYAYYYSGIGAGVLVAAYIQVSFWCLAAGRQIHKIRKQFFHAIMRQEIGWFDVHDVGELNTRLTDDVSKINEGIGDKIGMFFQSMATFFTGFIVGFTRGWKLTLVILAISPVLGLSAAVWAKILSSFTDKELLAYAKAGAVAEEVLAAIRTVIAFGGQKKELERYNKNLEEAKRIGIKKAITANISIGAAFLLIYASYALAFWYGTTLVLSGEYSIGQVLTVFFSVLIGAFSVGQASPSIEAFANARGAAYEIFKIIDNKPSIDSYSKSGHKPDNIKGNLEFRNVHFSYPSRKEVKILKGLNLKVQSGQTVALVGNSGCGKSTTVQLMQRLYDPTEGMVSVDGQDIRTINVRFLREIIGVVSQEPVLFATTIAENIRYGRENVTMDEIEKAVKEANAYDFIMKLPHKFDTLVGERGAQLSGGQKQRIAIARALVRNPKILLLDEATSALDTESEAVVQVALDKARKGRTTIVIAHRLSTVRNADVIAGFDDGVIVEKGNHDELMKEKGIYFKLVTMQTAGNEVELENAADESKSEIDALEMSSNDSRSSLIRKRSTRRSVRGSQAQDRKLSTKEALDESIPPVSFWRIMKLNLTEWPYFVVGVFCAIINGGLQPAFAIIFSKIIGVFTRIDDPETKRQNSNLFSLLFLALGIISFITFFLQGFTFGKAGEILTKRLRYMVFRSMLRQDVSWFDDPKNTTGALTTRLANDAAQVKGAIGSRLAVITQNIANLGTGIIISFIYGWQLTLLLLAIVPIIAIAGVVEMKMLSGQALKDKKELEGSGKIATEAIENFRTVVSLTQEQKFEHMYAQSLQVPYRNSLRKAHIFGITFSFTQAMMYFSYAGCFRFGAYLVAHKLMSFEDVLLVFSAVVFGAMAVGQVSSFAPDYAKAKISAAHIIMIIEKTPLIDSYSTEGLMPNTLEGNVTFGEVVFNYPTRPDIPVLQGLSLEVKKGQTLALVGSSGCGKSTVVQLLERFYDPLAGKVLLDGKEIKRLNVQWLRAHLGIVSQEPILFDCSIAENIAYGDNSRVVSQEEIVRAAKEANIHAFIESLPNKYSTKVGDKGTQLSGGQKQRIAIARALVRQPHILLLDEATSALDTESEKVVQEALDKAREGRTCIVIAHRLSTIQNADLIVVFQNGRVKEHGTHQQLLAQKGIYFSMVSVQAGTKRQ

[3] = molecular target: T2, ATP-dependent translocase ABCB1; test: TP_TRANSPORTER: inhibition of Calcein-AM efflux in MDR1-expressing LLC-PK1 cells; assay type: functional, cell-based
Target sequence in this assay (P08183 whole entry): as above

[4] = molecular target: T3, ATP-dependent translocase ABCB1 (Mus musculus, UniProt P06795); test: TP_TRANSPORTER: inhibition of Calcein-AM efflux in Mdr1b-expressing LLC-PK1 cells; assay type: functional, cell-based
[5] = Partition coefficient (logP); assay type: physicochemical; details: octanol/water
[6] = molecular target: T2, ATP-dependent translocase ABCB1; test: Inhibition of P-gp was determined using rhodamine-assay in human CaCo-2 cells; assay type: functional, cell-based; set-up: concentration or dose not given beside the values
Target sequence in this assay (P08183 whole entry): as above

[7] = molecular target: T2, ATP-dependent translocase ABCB1; test: Inhibition of P-glycoprotein using ATPase in MDR1 membranes; assay type: functional, cell membranes
Target sequence in this assay (P08183 whole entry): as above

[8] = molecular target: T1, ATP-dependent translocase ABCB1; test: Inhibition of P-glycoprotein, mouse L-mdr1a expressed in LLC-PK1 epithelial cells using calcein-AM polarisation assay; assay type: functional, cell-based
Cytochrome P450 3A4 [9] = molecular target: T4, Cytochrome P450 3A4 (Homo sapiens, UniProt P08684)
Description: Inhibition of human cytochrome P450 3A4

[10] = molecular target: T3, ATP-dependent translocase ABCB1; test: Inhibition of P-glycoprotein, mouse L-mdr1b expressed in LLC-PK1 epithelial cells using calcein-AM polarisation assay; assay type: functional, cell-based
[11] = molecular target: T1, ATP-dependent translocase ABCB1; test: P-gp activity was measured by a direct transport assay, using polarized LLC-PK1 epithelial cells; assay type: functional, cell-based; details: human
[12] = molecular target: T1, ATP-dependent translocase ABCB1; test: P-gp activity was measured by a direct transport assay, using polarized LLC-mdr1a epithelial cells; assay type: functional, cell-based; details: human, epithelial cell
[13] = molecular target: T2, ATP-dependent translocase ABCB1; test: P-gp activity was measured by a direct transport assay, using polarized LLC-MDR1 epithelial cells; details: epithelial cell
[14] = molecular target: T2, ATP-dependent translocase ABCB1; test: Inhibition of P-glycoprotein, human L-MDR1 expressed in LLC-PK1 epithelial cells using calcein-AM polarisation assay; assay type: functional, cell-based
Target sequence in this assay (P08183 whole entry): as above

Cytochrome P450 3A4 [15] = molecular target: T4, Cytochrome P450 3A4; remark: listed apart in the source
Description: Inhibition of human cytochrome P450 3A4

T1 sequence (P21447 whole entry): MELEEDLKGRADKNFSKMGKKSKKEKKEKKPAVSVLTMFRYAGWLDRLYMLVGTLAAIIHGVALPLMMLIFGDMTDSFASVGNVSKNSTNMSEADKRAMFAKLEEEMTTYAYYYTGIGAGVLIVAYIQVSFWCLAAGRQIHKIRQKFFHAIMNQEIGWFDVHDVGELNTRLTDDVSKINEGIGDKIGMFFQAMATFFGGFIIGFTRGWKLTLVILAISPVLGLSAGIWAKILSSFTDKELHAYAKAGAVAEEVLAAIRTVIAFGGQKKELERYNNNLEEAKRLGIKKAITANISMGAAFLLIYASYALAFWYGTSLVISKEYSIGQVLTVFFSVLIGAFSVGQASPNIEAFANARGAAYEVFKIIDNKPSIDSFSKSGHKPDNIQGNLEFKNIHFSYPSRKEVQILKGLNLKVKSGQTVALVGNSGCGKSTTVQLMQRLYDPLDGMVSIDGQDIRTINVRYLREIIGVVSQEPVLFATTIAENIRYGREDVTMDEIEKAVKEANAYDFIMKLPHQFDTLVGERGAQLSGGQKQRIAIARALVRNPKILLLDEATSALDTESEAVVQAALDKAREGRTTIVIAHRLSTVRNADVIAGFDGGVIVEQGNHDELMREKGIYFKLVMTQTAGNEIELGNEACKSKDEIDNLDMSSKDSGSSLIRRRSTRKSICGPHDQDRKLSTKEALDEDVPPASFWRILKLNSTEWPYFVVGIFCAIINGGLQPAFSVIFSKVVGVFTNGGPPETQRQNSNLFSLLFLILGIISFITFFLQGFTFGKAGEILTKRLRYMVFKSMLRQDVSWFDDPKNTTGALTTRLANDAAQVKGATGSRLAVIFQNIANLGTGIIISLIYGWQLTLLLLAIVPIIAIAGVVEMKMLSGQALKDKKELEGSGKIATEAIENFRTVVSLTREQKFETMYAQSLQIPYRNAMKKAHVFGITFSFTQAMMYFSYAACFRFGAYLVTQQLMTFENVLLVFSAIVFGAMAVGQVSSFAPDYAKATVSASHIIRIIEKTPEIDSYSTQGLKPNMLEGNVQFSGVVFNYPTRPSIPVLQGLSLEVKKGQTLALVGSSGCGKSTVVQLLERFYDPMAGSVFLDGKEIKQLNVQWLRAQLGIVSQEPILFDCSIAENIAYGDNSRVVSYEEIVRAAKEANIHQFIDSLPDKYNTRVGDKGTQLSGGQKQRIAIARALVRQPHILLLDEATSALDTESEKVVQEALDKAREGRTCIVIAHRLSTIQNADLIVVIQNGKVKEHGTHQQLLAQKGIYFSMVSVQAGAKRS
T3 sequence (P06795 whole entry): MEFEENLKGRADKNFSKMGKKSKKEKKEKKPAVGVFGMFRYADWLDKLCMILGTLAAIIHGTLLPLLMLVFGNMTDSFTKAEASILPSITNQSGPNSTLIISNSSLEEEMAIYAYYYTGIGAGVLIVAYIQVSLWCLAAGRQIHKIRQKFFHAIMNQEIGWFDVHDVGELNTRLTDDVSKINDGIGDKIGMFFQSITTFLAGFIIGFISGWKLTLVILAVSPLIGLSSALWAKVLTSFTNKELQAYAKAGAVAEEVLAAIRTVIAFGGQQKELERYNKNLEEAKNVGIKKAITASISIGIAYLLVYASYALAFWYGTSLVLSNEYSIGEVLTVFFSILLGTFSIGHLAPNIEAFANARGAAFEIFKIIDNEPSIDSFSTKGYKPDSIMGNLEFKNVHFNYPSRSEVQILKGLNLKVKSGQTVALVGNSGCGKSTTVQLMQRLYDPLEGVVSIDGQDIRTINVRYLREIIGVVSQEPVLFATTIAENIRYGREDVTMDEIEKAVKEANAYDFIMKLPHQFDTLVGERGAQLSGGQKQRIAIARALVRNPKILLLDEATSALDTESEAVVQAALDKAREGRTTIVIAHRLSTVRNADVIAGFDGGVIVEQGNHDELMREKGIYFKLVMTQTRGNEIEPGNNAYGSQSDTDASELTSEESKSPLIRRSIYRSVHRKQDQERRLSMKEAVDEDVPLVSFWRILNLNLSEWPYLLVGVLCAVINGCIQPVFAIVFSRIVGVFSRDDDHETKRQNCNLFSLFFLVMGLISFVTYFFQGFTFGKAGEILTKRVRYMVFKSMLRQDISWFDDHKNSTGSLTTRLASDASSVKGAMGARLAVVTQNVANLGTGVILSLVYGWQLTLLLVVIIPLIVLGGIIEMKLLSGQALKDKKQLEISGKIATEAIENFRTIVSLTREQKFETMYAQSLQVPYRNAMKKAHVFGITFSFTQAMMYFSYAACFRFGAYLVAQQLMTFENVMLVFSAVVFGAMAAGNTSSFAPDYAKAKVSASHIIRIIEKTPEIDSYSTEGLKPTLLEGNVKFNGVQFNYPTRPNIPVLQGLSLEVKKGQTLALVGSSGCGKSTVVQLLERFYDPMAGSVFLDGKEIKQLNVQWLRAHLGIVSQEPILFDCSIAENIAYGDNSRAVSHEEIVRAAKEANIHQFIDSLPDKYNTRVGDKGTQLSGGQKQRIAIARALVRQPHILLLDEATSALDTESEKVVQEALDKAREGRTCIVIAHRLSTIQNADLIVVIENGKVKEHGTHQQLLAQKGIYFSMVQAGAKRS
T4 sequence (P08684 whole entry): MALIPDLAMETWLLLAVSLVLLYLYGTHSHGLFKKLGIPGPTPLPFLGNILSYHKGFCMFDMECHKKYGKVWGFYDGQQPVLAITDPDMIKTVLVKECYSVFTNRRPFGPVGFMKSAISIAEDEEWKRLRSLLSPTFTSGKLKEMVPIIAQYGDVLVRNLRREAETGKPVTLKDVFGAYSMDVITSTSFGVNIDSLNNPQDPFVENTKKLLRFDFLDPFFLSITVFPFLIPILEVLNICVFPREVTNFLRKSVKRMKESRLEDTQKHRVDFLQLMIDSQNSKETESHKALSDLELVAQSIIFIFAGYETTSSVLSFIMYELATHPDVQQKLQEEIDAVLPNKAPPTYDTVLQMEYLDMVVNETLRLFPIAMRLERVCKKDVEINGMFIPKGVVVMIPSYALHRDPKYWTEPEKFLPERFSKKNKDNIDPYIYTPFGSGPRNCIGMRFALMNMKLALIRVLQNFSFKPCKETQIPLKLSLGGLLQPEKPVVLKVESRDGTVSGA

Compound | IC50 [1] [µM] | Activity [2] [%] | IC50 [4] [µM] | Inhibition [6] [%] | Activity [7] [nmol/min/mg] | IC50 [8] [µM] | logP ([5]; read-out: logP) | IC50 [10] [µM] | further results
CNC(=C[N+](=O)[O-])NCCSCc1ccc(CN(C)C)o1 [RANITIDINE] | > 50 | 0 | > 50 |  |  |  |  |  | IC50 [3]: > 50 µM
Cc1c(O)cccc1C(=O)N[C@@H](CSc1ccccc1)[C@H](O)CN1C[C@H]2CCCC[C@H]2C[C@H]1C(=O)NC(C)(C)C | 2.3 | 30 |  | 30 | 6.2 | 2.3 |  |  | logP [5]: 5.8
CC[C@H]1OC(=O)[C@H](C)[C@@H](O[C@H]2C[C@@](C)(OC)[C@@H](O)[C@H](C)O2)[C@H](C)[C@@H](O[C@@H]2O[C@H](C)C[C@H](N(C)C)[C@H]2O)[C@](C)(O)C[C@@H](C)C(=O)[C@H](C)[C@@H](O)[C@]1(C)O [ERYTHROMYCIN] |  |  |  |  | 4 | > 50 | 2.5 |  | IC50 (Cytochrome P450 3A4 [9]): 33 µM
COc1ccc(CCN2CCC(Nc3nc4ccccc4n3Cc3ccc(F)cc3)CC2)cc1 [ASTEMIZOLE] | 1.3 | 39 | 1.7 | 39 | 18 | 1.3 | 5.7 | 1.7 | 
CC(C)(C)NC(=O)[C@@H]1C[C@@H]2CCCC[C@@H]2CN1C[C@@H](O)[C@H](Cc1ccccc1)NC(=O)[C@H](CC(N)=O)NC(=O)c1ccc2ccccc2n1 |  | 43 | > 50 | 43 | 30 |  | 4.7 | > 50 | 
CC1(C)SSC(C)(C)[C@@H](NC(=O)[C@@H](N)Cc2ccc(O)cc2)C(=O)NCC(=O)N[C@@H](Cc2ccccc2)C(=O)N[C@H]1C(=O)O | > 50 | 0 | > 50 | 0 | 4 | > 50 | 1 | > 50 | Ratio [11]: 0.8; Ratio [12]: 0.9; IC50 (Cytochrome P450 3A4 [9]): > 50 µM; Ratio [13]: 0.6
Clc1ccc(COC(Cn2ccnc2)c2ccc(Cl)cc2Cl)c(Cl)c1 (centres undefined) [MICONAZOLE] | 7.8 | 22 |  | 22 | 1 | 7.8 | 5.8 |  | 
Cc1ncc2n1-c1ccc(Cl)cc1C(c1ccccc1F)=NC2 [MIDAZOLAM] | > 50 | 12 | 33 | 12 | 6 | > 50 | 3.3 | 33 | IC50 [14]: > 50 µM; IC50 [3]: > 50 µM
COC(=O)C1=C(C)NC(C)=C(C(=O)OCCN(C)Cc2ccccc2)C1c1cccc([N+](=O)[O-])c1 (centres undefined) [NICARDIPINE] | 2.5 | 100 | 8 |  | 18 | 2.5 | 5.5 | 8 | 
C=C[C@H]1C[N@@]2CC[C@H]1C[C@@H]2[C@@H](O)c1ccnc2ccc(OC)cc12 [QUINIDINE] | 13 |  | 10 |  | 20 | 13 | 2.8 | 10 | 
CC(C)(C)c1ccc(C(O)CCCN2CCC(C(O)(c3ccccc3)c3ccccc3)CC2)cc1 (centres undefined) [TERFENADINE] |  |  | 2 |  | 0.4 |  | 5.7 | 2 | 
COc1cc([C@@H]2c3cc4c(cc3[C@@H](O[C@@H]3O[C@@H]5CO[C@@H](C)O[C@H]5[C@H](O)[C@H]3O)[C@H]3COC(=O)[C@H]23)OCO4)cc(OC)c1O [ETOPOSIDE] |  |  | > 50 |  | -0.2 |  | 0.6 | > 50 | 
CN/C(=C\[N+](=O)[O-])NCCSCc1ccc(CN(C)C)o1 [RANITIDINE] |  |  |  | 0 | -2.4 | > 50 | 0.6 | > 50 | IC50 [14]: > 50 µM
IVERMECTIN |  | 34 |  | 34 | -3.4 |  |  |  | logP [5]: 4; IC50 ([10]; llc-pk1): 0.5 µM; IC50 ([14]; llc-pk1): 0.1 µM; IC50 ([8]; llc-pk1): 0.5 µM; IC50 ([1]; llc-pk1): 0.5 µM; IC50 ([3]; llc-pk1): 0.1 µM; IC50 ([4]; llc-pk1): 0.5 µM; IC50 (Cytochrome P450 3A4 [15]): > 50 µM
CC[C@]1(O)C[C@@H]2CN(CCc3c([nH]c4ccccc34)[C@@](C(=O)OC)(c3cc4c(cc3OC)N(C)[C@H]3[C@@](O)(C(=O)OC)[C@H](OC(C)=O)[C@]5(CC)C=CCN6CC[C@]43[C@@H]65)C2)C1 [VINBLASTINE] | > 50 | 75 | 8 | 75 | 33 | > 50 |  | 8 | logP [5]: 5.2
Clc1ccccc1C(c1ccccc1)(c1ccccc1)n1ccnc1 [CLOTRIMAZOLE] | 4.8 | 29 | 3.5 | 29 | 7.5 | 4.8 | 5.3 | 3.5 | 
C[C@@H]1C[C@H]2[C@@H]3CCC4=CC(=O)C=C[C@]4(C)[C@@]3(F)[C@@H](O)C[C@]2(C)[C@@]1(O)C(=O)CO [DEXAMETHASONE] | > 50 | 0 | > 50 | 0 | 4 | > 50 | 1.7 | > 50 | IC50 [14]: > 50 µM; IC50 [3]: > 50 µM
C[C@H]1O[C@@H](O[C@H]2[C@@H](O)C[C@H](O[C@H]3[C@@H](O)C[C@H](O[C@H]4CC[C@@]5(C)[C@H](CC[C@@H]6[C@@H]5C[C@@H](O)[C@]5(C)[C@@H](C7=CC(=O)OC7)CC[C@]65O)C4)O[C@@H]3C)O[C@@H]2C)C[C@H](O)[C@@H]1O [DIGOXIN] | > 50 |  | > 50 |  |  | > 50 |  | > 50 | 
O=c1[nH]c2ccccc2n1C1CCN(CCCC(c2ccc(F)cc2)c2ccc(F)cc2)CC1 [PIMOZIDE] |  | 37 | > 50 | 37 | 11 |  |  | > 50 | 
CCC(C)n1ncn(-c2ccc(N3CCN(c4ccc(OC[C@H]5CO[C@](Cn6cncn6)(c6ccc(Cl)cc6Cl)O5)cc4)CC3)cc2)c1=O (some centres undefined) [ITRACONAZOLE] |  |  |  | 2 | 18 | 0.2 | 6.5 |  | 
CCC(C)n1ncn(-c2ccc(N3CCN(c4ccc(OCC5COC(Cn6cncn6)(c6ccc(Cl)cc6Cl)O5)cc4)CC3)cc2)c1=O (centres undefined) [ITRACONAZOLE] | 0.2 | 2 |  |  |  |  |  |  | 
CN/C(=N/CCSCc1nc[nH]c1C)NC#N [CIMETIDINE] |  | 4 | > 50 | 4 | 2.8 |  |  | > 50 | 
CC(C)c1nc(CN(C)C(=O)N[C@H](C(=O)N[C@@H](Cc2ccccc2)C[C@H](O)[C@H](Cc2ccccc2)NC(=O)OCc2cncs2)C(C)C)cs1 [RITONAVIR] |  |  |  |  |  |  | 4.9 |  | 
CC1(C)S[C@@H]2[C@H](NC(=O)Cc3ccccc3)C(=O)N2[C@H]1C(=O)O [PENICILLIN G] |  |  |  |  |  |  |  |  | Ratio [12]: 1.1
COCC(=O)O[C@]1(CCN(C)CCCc2nc3ccccc3[nH]2)CCc2cc(F)ccc2[C@@H]1C(C)C [MIBEFRADIL] | 7.4 | 60 | 10 | 60 | 8.9 | 7.4 |  | 10 | logP [5]: 6.2
COc1cc2c(c(OC)c1OC)-c1ccc(OC)c(=O)cc1[C@@H](NC(C)=O)CC2 [COLCHICINE] | > 50 | 8 | > 50 | 8 | 0.1 | > 50 |  | > 50 | IC50 [14]: > 50 µM; IC50 [3]: > 50 µM
